Test results as given in patent US12012628B2, “Method to elevate the amount of steviol glycosides remained in the recrystallization mother liquor of Stevia extract” (Jiangnan University, priority 2018, dated 2024).
Like-named read-outs stand apart in the source and are kept apart here.

Tests used:
[1] = n-butyl alcohol/water partition coefficients of steviol glycosides; type: physicochemical
Text: The n-butyl alcohol/water partition coefficients of several major steviol glycosides in the mother liquor glycosides are shown in Table 1. It can be seen in Table 1 that the polarity difference between rebaudioside A and rebaudioside C and rubusoside is far larger than the polarity difference between rebaudioside A and rebaudioside C and stevioside; and thus, after stevioside is converted into rubusoside, rebaudioside A and rebaudioside C can be separated out of a mixture more easily than before.

[2] = tested on: lactase from Kluyveromyces fragilis (ATCC 8554); assay: Lactase-catalysed hydrolysis of steviol glycosides, HPLC analysis of the reaction mixture; type: biochemical
Protocol: A standard curve is drawn with rebaudioside A (HPLC 99%) as a standard sample, concentrations of rebaudioside A, stevioside and rubusoside are figured out through the standard curve of rebaudioside A by means of an analysis and detection method of steviol glycosides in JECFA2016.
A conversion rate calculation formula of stevioside: α=[(C0−Ct)/C0]×100% (1)
(§1) 250 g/L glycoside liquid is prepared with deionized water from Stevia sugar (containing 22% of rebaudioside A, 68% of stevioside and 3% of rebaudioside C in percentages by mass). The lactase freeze-dried powder obtained in Example 1 is added to reach an enzyme concentration of 60 U/g stevioside for reaction at 35° C. for 2 h.
as §1, with “of 150” for “of 60”, “for 24” for “for 2”
100 g/L glycoside liquid is prepared from the Stevia mother liquor glycosides (containing 47% of rebaudioside A, 19% of stevioside and 7% of rebaudioside C in percentages by mass). The lactase freeze-dried powder obtained in Example 1 is added to reach an enzyme concentration of 30 U/g stevioside for reaction at 25° C. for 0.5 h. […] It can be seen that a conversion rate of stevioside will drop at a low temperature, a low enzyme concentration and a short reaction time.
A 200 g/L stevioside solution is prepared by dissolving 20 g of stevioside (97%, HPLC) in 100 mL of deionized water into a reactor. The lactase freeze-dried powder obtained in Example 1 is added to reach an enzyme concentration of 90 U/g stevioside for reaction at 35° C. for 2 h.
The lactase freeze-dried powder obtained in Example 1 is added to a mixed glycoside solution (50% of stevioside and 50% of rebaudioside A) with a solid content of 200 g/L to reach an enzyme concentration of 200 U/g stevioside, stirred at 35° C. for 2 h.
A 10 g/L rebaudioside A solution is prepared by dissolving 1 g of rebaudioside A (99%, HPLC) in 100 mL of deionized water and preheated for 30 min at 30° C. The lactase freeze-dried powder obtained in Example 1 is added to reach an enzyme concentration of 100 U/g rebaudioside A for reaction for 24 h at 30° C.

[3] = biological target: T1, lactase (Lactozym Pure 7500 L) (Kluyveromyces lactis, UniProt P00723); assay: Hydrolysis of stevioside in Stevia sugar by commercial lactase, HPLC; type: biochemical; conditions: Stevia sugar 450 g/L, pH5 buffer; 100 U/g stevioside; 30° C., 2 h
T1 construct: purchased Novozymes Lactozym Pure 7500 L
T1 sequence (P00723 whole entry): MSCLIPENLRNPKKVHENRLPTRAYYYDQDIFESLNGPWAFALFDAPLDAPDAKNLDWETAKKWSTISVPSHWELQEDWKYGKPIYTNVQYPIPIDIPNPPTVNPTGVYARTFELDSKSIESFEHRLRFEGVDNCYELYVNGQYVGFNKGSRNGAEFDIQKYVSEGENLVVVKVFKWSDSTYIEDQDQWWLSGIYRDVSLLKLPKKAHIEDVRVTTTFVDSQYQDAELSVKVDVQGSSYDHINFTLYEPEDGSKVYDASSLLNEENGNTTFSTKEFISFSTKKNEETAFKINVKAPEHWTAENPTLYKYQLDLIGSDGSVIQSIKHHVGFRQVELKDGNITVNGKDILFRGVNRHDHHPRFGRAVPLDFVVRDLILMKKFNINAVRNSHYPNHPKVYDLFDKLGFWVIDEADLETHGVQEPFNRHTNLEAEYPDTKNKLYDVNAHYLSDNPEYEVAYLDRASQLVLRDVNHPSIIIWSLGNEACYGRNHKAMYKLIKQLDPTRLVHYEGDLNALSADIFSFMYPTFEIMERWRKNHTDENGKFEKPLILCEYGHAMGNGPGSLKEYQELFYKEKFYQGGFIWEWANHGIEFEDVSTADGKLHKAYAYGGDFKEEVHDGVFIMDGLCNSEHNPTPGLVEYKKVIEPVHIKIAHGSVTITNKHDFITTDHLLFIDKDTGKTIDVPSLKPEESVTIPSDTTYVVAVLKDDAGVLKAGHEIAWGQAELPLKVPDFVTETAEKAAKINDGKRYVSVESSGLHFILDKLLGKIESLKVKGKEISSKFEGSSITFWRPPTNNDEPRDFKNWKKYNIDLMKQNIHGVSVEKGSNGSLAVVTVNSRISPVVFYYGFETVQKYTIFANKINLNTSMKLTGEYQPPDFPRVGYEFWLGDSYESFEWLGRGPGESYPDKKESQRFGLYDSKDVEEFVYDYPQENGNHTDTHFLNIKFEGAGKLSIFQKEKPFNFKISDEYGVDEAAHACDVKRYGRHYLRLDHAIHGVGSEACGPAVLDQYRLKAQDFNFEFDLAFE
Protocol: (§2) 450 g/L glycoside liquid is prepared with a pH5 phosphate-potassium phosphate buffer solution (50 mmol/L) from Stevia sugar (containing 22% of rebaudioside A, 68% of stevioside and 3% of rebaudioside C in percentages by mass). The lactase (Lactozym Pure 7500 L, purchased from Novozymes company in China) is added to reach an enzyme concentration of 100 U/g stevioside for reaction at 30° C. for 2 h.

[4] = biological target: T2, lactase (Lactozym 3000 L HP-G) from Kluyveromyces lactis (Kluyveromyces lactis, UniProt P00723); assay: as above; type: biochemical; conditions: Stevia sugar 450 g/L, pH5 buffer; 100 U/g stevioside; 30° C., 2 h
T2 construct: purchased Novozymes Lactozym 3000 L HP-G
T2 sequence (P00723 whole entry): as above
Protocol: as §2, with “(trade name: Lactozym 3000 L HP-G,” for “(Lactozym Pure 7500 L,”, “China) from Kluyveromyces lactis” for “China)”

[5] = biological target: T3, lactase (Maxilact LG 2000) from Kluyveromyces lactis (Kluyveromyces lactis, UniProt P00723); assay: as above; type: biochemical; conditions: Stevia sugar 450 g/L, pH5 buffer, 100 U/g stevioside, 30° C.
T3 construct: purchased Royal DSM Maxilact LG 2000
T3 sequence (P00723 whole entry): as above
Protocol: 450 g/L glycoside liquid is prepared with a pH5 phosphate-potassium phosphate buffer solution (50 mmol/L) from Stevia sugar (containing 22% of rebaudioside A, 68% of stevioside and 3% of rebaudioside C in percentages by mass). […]

[6] = biological target: lactase from Aspergillus niger (ATCC 9029) (Aspergillus niger, UniProt P29853); assay: Hydrolysis of stevioside in Stevia sugar by lactase, HPLC; type: biochemical; conditions: Stevia sugar 450 g/L, pH5 buffer; 100 U/g stevioside; 30° C., 2 h
lactase from Aspergillus niger (ATCC 9029), sequence (P29853 20-1006): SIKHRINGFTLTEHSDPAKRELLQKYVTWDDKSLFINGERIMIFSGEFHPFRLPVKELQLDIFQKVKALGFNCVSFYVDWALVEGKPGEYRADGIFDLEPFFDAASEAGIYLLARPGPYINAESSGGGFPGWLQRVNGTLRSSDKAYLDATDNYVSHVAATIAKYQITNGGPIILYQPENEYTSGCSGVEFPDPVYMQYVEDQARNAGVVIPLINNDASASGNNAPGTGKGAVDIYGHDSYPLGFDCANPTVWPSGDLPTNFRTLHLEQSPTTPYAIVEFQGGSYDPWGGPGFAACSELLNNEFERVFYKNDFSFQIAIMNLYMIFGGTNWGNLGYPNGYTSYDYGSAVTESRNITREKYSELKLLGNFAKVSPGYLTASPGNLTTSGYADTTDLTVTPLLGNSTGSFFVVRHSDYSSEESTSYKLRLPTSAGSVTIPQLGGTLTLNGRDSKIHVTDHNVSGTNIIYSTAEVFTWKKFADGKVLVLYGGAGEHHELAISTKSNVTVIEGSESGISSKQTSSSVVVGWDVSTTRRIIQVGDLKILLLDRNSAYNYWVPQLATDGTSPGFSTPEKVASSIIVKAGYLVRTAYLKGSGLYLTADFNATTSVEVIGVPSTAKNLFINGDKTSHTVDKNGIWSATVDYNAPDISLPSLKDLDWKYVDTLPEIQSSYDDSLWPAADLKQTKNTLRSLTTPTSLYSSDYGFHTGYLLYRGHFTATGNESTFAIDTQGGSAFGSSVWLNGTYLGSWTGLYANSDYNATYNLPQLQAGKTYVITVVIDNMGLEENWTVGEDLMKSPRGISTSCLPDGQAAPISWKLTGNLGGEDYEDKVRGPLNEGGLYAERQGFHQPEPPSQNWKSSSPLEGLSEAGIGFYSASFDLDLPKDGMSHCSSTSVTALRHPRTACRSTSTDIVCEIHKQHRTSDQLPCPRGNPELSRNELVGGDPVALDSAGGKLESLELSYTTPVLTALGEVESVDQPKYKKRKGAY
Protocol: as §2, with “lactase” for “lactase (Lactozym Pure 7500 L, purchased”, “Aspergillus niger (ATCC® 9029™)” for “Novozymes company in China)”

## C=C1C[C@@]23CC[C@H]4[C@@](C)(CCC[C@@]4(C)C(=O)O[C@@H]4O[C@H](CO)[C@@H](O)[C@H](O)[C@H]4O)[C@@H]2CC[C@]1(O[C@@H]1O[C@H](CO)[C@@H](O)[C@H](O)[C@H]1O[C@@H]1O[C@H](CO)[C@@H](O)[C@H](O)[C@H]1O)C3 [stevioside]
[1]; n-butyl alcohol/water
  n-butyl alcohol/water partition coefficients: 0.36
[2]; 50% stevioside + 50% rebaudioside A, 200 g/L, 200 U/g stevioside, 35° C., 2 h
  conversion rate of stevioside: 99.5%
[2]; 200 g/L stevioside (97%) solution, 90 U/g stevioside, 35° C., 2 h
  conversion rate of stevioside: 98.9%
[2]; Stevia mother liquor glycosides 100 g/L (19% stevioside), 30 U/g stevioside, 25° C., 0.5 h
  conversion rate of stevioside: 72.7%
[2]; Stevia sugar 250 g/L (68% stevioside), 60 U/g stevioside, 35° C., 2 h
  conversion rate of stevioside: 98.3%
[2]; Stevia sugar 250 g/L (68% stevioside), 150 U/g stevioside, 35° C., 24 h
  conversion rate of stevioside: 99.5%
[3]
  conversion of stevioside: not converted
[4]
  conversion of stevioside: not converted
[5]; 2 h
  conversion of stevioside: not converted
[5]; 20 h
  product of the reaction of stevioside: steviolbioside is produced
[6]
  content of stevioside in the reaction mixture: no change

## C=C1C[C@@]23CC[C@H]4[C@@](C)(CCC[C@@]4(C)C(=O)O[C@@H]4O[C@H](CO)[C@@H](O)[C@H](O)[C@H]4O)[C@@H]2CC[C@]1(O[C@@H]1O[C@H](CO)[C@@H](O)[C@H](O[C@@H]2O[C@H](CO)[C@@H](O)[C@H](O)[C@H]2O)[C@H]1O[C@@H]1O[C@H](CO)[C@@H](O)[C@H](O)[C@H]1O)C3 [rebaudioside A]
[1]
  n-butyl alcohol/water partition coefficients: 0.09
[2]; 10 g/L rebaudioside A, 100 U/g rebaudioside A, 30° C., 24 h
  reaction of rebaudioside A with lactase: did not react
[2]; 50 wt % rebaudioside A + 50 wt % stevioside, 200 U/g stevioside, 2 h (FIG. 4A)
  reaction of rebaudioside A with lactase in mixture with stevioside: does not react

## C=C1C[C@@]23CC[C@H]4[C@@](C)(CCC[C@@]4(C)C(=O)O[C@@H]4O[C@H](CO)[C@@H](O)[C@H](O)[C@H]4O)[C@@H]2CC[C@]1(O[C@@H]1O[C@H](CO)[C@@H](O)[C@H](O)[C@H]1O)C3 [rubusoside]
[1]
  n-butyl alcohol/water partition coefficients: 3.5

## rebaudioside C
[1]
  n-butyl alcohol/water partition coefficients: 0.2
